We go through three compounds from PMC9841525, “Chemical Blockage of the Mitochondrial Rhomboid Protease PARL by Novel Ketoamide Inhibitors Reveals Its Role in PINK1/Parkin-Dependent Mitophagy” (Journal of Medicinal Chemistry, 2022).

*1 amine or outer side, *2 acyl side, *3 side chain or, on linkers, in order; H or OH if unused. Where a SMILES comes first, the peptide text is derived from it. [ ]: non-standard residue; d: D form. The star is where a group is joined. X2 = O=C(C(=O)[*:2])[C@H](Cc1ccccc1)N[*:1]; NH(4-phenylbutyl) = c1ccc(CCCCN*)cc1; X1 = C[C@H](N[*:1])C(=O)C(=O)[*:2]

In test [1] the target is T1, PARL (Homo sapiens, UniProt Q9H300).
T1 sequence (Q9H300 53-379): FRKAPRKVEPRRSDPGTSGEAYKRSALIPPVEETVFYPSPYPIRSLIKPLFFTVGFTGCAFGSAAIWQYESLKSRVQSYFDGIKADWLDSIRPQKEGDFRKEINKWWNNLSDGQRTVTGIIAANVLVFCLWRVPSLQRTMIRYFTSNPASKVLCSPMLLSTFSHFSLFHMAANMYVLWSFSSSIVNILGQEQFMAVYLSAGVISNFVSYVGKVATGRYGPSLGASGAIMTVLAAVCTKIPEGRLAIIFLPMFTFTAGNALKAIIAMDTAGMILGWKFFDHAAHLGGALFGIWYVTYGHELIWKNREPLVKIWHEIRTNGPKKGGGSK
The experiment in a line: PARL inhibition in vitro, PARL in liposomes with substrate compound 4. The test is classed as biochemical. Also on record: hexahistidine tag (C); made in house; host or cells: continuous-exchange cell-free expression in bacterial lysates with T7 polymerase (CUBE biotech), into liposomes. The settings on record: recombinant mature PARL in liposomes, 100 μM substrate compound 4, mean ± SEM of three or four measurements. The method, then: Liposome preparation and cell-free protein expression of PARL were carried out essentially as described previously.[27] Liposomes resembling the lipid composition of the IMM were prepared by mixing 40% DOPC (1,2-dioleoyl-sn-glycero-3-phosphocholine), 33.8% DOPE (1,2-dioleoyl-sn-glycero-3-phosphoethanolamine), 18% CL(18:1)4 (1′,3′-bis[1,2-dioleyl-sn-glycero-3-phospho]-glycerol), 3% DOPS (1,2-dioleoyl-sn-glycero-3-phospho-L-serine), 5% soy-PI (L-α-phosphatidylinositol), and 0.2% rhodamine-PE (1,2-dioleoyl-sn-glycero-3-phosphoethanolamine-N-(lissamine rhodamine B sulfonyl)) in chloroform, followed by the evaporation of chloroform by a stream of nitrogen gas and drying in a vacuum chamber (Binder) for 1 h. Dried lipids were dissolved in buffer (5 mM Tris/HCl, pH 8.5, 10 mM KOAc) and extruded 21 times through a mini extruder (Avanti Polar Lipids) using a polycarbonate membrane with a pore size of […]. […] The PARL-containing liposomes were purified by a step-wise sucrose step-gradient centrifugation (0, 15, 30, and 40% sucrose in 5 mM HEPES pH 7.5 with 25 mM NaCl) for 2 h at 200,000 × g. Soluble proteoliposomes were harvested at the 0%/15% sucrose interface after the centrifugation. Concentration of PARL was determined by absorption at 280 nm.
PARL inhibition in vitro was measured in 5 mM Tris, 5 mM Mg(OAc)2, 25 μM Zn(OAc)2, 0.1 μg/μL BSA, 10% DMSO, pH 8.0 using PARL in liposomes at 0.07 mg/mL and compound 4 at 100 μM final concentration. Inhibitor concentrations were determined by quantitative amino acid analysis. Inhibitors in DMSO were dissolved at the respective concentrations into the reaction buffer by vigorous mixing at 1000 rpm, 37 °C for 40 min and then pre-incubated with PARL in liposomes at 37° for 1 h. The cleavage reaction was started by adding compound 4 and carried out at 37 °C in 96-well black HTS plates (Greiner Bio-One). Fluorescence was read in a plate reader (Tecan Infinite M1000) with excitation and emission wavelengths set to 355 and 450 nm, respectively. Data were evaluated using Excel (Microsoft) and GraphPad Prism 9 (GraphPad Software, Inc.). The data shown are representative of at least three independent experiments.

Test [2] concerns the target T1, PARL. The experiment in a line: PARL inhibition assay in cells: cleavage of overexpressed PGAM5-Myc by tetracycline-induced PARL-FLAG, immunoblot. The class given is cell-based. Also noted: expressed in transfected cells; host or cells: Flp-In HEK293 T-REx PARL knockout cells. The note with it: Flp-In HEK293 T-REx PARL KO cells with inducible PARL-FLAG, PGAM5-Myc, mean ± SEM of four or three experiments; read-out: Apparent IC50, PGAM5 cleavage by overexpressed PARL. The method, then: PARL inhibition assays in cells were carried out in Flp-In HEK293 T-REx PARL knockout cells stably transfected with tetracycline inducible PARL-FLAG grown in DMEM (Gibco) supplemented with 10% (v/v) tetracycline-free fetal bovine serum (Clontech). For the inhibition assay, 0.7 × 10^6 cells were seeded per well of a 6-well plate, and the next day transfected with 5 μg of human PGAM5-Myc in pcDNA and 15 μg of branched polyethylenimine (Polysciences) per well. Four hours after transfection, the PARL expression was induced by adding tetracycline to 1 μg/mL. Eight hours after transfection, the inhibitors were added to each well in different concentrations in serum-free DMEM with 1% DMSO.
For immunoblot analysis of the effects of PARL inhibitors on PGAM5 cleavage, after overnight incubation with inhibitors, cells from each well were harvested in 1× SDS sample buffer containing 20 mM MgCl2 and Pierce universal nuclease (250 U/mL, Thermo Scientific) and heated to 65 °C for 10 min. Loading volumes for SDS-PAGE were adjusted by measuring total protein concentration in the lysates with Pierce 660 nm Protein Assay Reagent and Ionic Detergent Compatibility Reagent for Pierce 660 nm Protein Assay Reagent (Thermo Scientific). Samples were resolved by SDS-PAGE using a 12% polyacrylamide gel (Biorad) and electrotransferred onto an Immobilon PVDF membrane (Merck Millipore). Blots were blocked using casein blocker (Thermo Scientific) and hPGAM5 was labeled by rabbit anti-Myc antibody (Cell Signaling Technology, cat. #2278, dilution 1:1000) at 4 °C overnight. Blots were washed three times with TBS-T and incubated with IRDye 800 CW donkey anti-rabbit antibody (Invitrogen, cat. #SA5-10044, dilution 1:10,000) at room temperature for 2 h. Membranes were then again washed three times with TBS-T and one time with TBS. Fluorescence emission at […] of dried membranes was scanned on Odyssey CLx (LI-COR). Cleavage efficiency and inhibition were analyzed as described[23] using Image Studio Lite (LI-COR), Excel (Microsoft) and GraphPad Prism 9 (GraphPad Software, Inc.).

The subject of test [3] is Parkin. The experiment in a line: Parkin recruitment to mitochondria and mitochondrial morphology, fluorescence microscopy. The settings on record: HEK293 T-REx PINK1 cells, 3 h; 5 μM compound 5, CCCP or Antimycin A, vs DMSO. The class given is cell-based, human. On the procedure: (§1) Inducible stable Flp-In HEK293 T-REx cells expressing PINK1 were described previously.[33] HEK293 T-REx PINK1 and HEK293T cells were grown in DMEM (Gibco) supplemented with 10% (v/v) fetal bovine serum (ThermoFisher), 1% (v/v) GlutaMAX (Gibco), 1% (v/v) sodium pyruvate (Gibco), 125 μg/mL hygromycin (Invitrogen), and 10 μg/mL blasticidin (Gibco) or DMEM supplemented with 10% (v/v) fetal bovine serum, respectively, at 37 °C in 5% (v/v) CO2. For microscopy, cells were seeded on poly-L-lysine (Sigma)-coated slides. Transient plasmid transfections were performed using 25 kDa linear polyethylenimine (Polysciences). Plasmid (100 ng) encoding HA-Parkin-IRES-GFP, mito-mCherry or Parkin-mEGFP, or 500 ng plasmid encoding PGAM5-FLAG were used per 6-well. Total transfected DNA was 2 μg/well. For siRNA transfection, 2 × 10^5 cells were seeded per 6-well and on the next day transfected with 20 nM siRNA-oligonucleotide using lipofectamine RNAiMAX (ThermoFisher). Cells were analyzed 27 h post-transfection or five days post-siRNA-transfection. HEK293 T-REx PINK1 cells were induced with 0.3 μg/mL doxycycline for 24 h before further processing. Hoechst staining (1 μg/mL) was done immediately before adding treatment to the cells. Treatments were administered for the indicated times before processing; CCCP (Sigma) was always used as 10 μM for 3 h and Antimycin A (Sigma) as 30 μM for 3 h.
For fixation, cells were incubated for 15 min with 4% formaldehyde (16% formaldehyde diluted in PBS, Thermo Scientific) and washed in PBS. The cover glasses were mounted with Fluoromount-G (Southern Biotech) on microscope slides. […] Parkin recruitment events to the mitochondria were counted by hand throughout each z-stack and cell. […] JC-1 images were handled as summed intensity z-stack projections, as well as subjected to flatfield correction and subtraction of background before measuring the fluorescence levels normalized to the number of cell nuclei. The fluorescence intensity ratio between the red and green signal was calculated and compared to DMSO as a ratio of 1. Data were evaluated using Excel and GraphPad Prism 6.

Test [4] relates to Parkin. Briefly: Parkin recruitment to mitochondria, subcellular fractionation and immunoblot. The test is classed as cell-based, human. The settings on record: HEK293 T-REx PINK1 cells, HA-Parkin-IRES-GFP; 5 μM compound 5, CCCP 10 μM or Antimycin A 30 μM. The method, then:
as §1
Unless mentioned otherwise, all steps were performed at 4 °C. For subcellular fractionation to separate cellular content into cytosolic and mitochondrial fractions, cells were washed with PBS, harvested in PBS-EDTA (1 mM EDTA, 0.2 g/L D-glucose), and centrifuged at 500 × g for 5 min. […]
For immunoblot analysis in other cases, cells were either processed as described above or washed with PBS and directly lysed with Tris-glycine SDS-PAGE sample buffer and heated for 15 min at 65 °C. […] For quantification, ImageJ was used (http://rsb.info.nih.gov/ij/). […]
For orientation: In western blotting, separated proteins are transferred to a membrane and probed.

Regarding `CC(=O)N[C@@H](CCCNC(=N)N)C(=O)N[C@@H](CCCNC(=N)N)C(=O)N[C@@H](C)C(=O)N[C@H](C(=O)N[C@@H](Cc1ccccc1)C(=O)N[C@@H](CC(C)C)C(=O)N[C@@H](C)C(=O)C(=O)NCCCCc1ccccc1)C(C)C` [compound 6] (Ac-RRAVFL[X1]-{NH(4-phenylbutyl)}), the 50% inhibitory concentration (IC50) at PARL [1] came to 0.08 µM; on PARL [2] it was 3.2 µM.

As to `CC[C@H](C)[C@H](NC(=O)[C@H](CCCCN)NC(=O)[C@H](Cc1ccccc1)NC(=O)[C@H](CCCNC(=N)N)NC(=O)[C@H](CCCNC(=N)N)NC(C)=O)C(=O)N[C@@H](Cc1ccccc1)C(=O)C(=O)NCCCCc1ccccc1` [compound 7] (Ac-RRFKI[X2]-{NH(4-phenylbutyl)}), the IC50 at PARL [1] stood at 1.04 µM.

As for `CCCCCC[C@H]1C(=O)O[C@H](C)[C@H](NC(=O)c2cccc(NC=O)c2O)C(=O)O[C@@H](C)[C@@H]1OC(=O)CC(C)C` [Antimycin A], in the test on Parkin [3], the “Recruitment of Parkin-mEGFP to mitochondria (microscopy)” value is reported as “not significantly different from Parkin recruitment under DMSO conditions”. Also, the “Parkin recruitment to the mitochondrial fraction” value with Parkin [4] is “activates the PINK1/Parkin pathway”.

For orientation: IC50 means the point on the concentration scale where inhibition reaches its midpoint.
